# Results published in patent US20250312469A1 (CANGET BIOTEKPHARMA, priority 2024, published 2025).
# Values joined by “and” are separate entries in the source; they are usually repeats but may differ in a detail not shown here. Equal values may be shown once. Marks after values point to notes of the source that are not given here.
# Experiments:
# [1] = Rat toxicology/MTD, non-clinically compatible FL118 HPMC suspension (Covance); details: for % BW Change (Day 4) / BW Change (Day 4) / Mean body weight Day 1 / Mean body weight Day 4: 3.3 mg/kg/dose
# Source text: Twenty male and 20 female Hsd: Sprague Dawley®SDR rats were received from Envigo RMS, Inc. (Indianapolis, Indiana). Animals were acclimated to the test facility for 7 days prior to initiation.
# Prior to group assignment, animals were excluded from the selection pool/sex to produce minimal variation. Animals were assigned to the study using a computerized procedure designed to achieve body weight balance with respect to group assignment with the following experimental design.
# Doses were based on the most recently recorded scheduled body weight. Animals were checked twice daily (a.m. and p.m.) for mortality, abnormalities, and signs of pain or distress. Cage-side observations were conducted for each animal once daily during the dosing phase, except on days when detailed observations were conducted. Abnormal findings were recorded. Detailed observations were conducted for each animal once during the pre-dose phase, and on Days 1, 4 and 8 (prior to dosing, as applicable) of the dosing phase. Detailed observations were also collected for each animal on days of scheduled sacrifice (all surviving animals). On each day of dosing, cage-side observations were conducted for each animal approximately 1, 4, and 24 hours postdose. Postdose observations were based on the time dosing was completed for each group/sex. Body weights were recorded once during the pre-dose phase, and on Days 1, 4, and 8 (prior to dosing, as applicable) of the dosing phase. The amount of food consumed by each cage of was recorded Days 1 to 4, Days 4 to 8, and Days 8 to 9. Blood samples for hematology, coagulation, and clinical chemistry were collected from fasted toxicity animals via a jugular vein. Blood samples were collected on the day of scheduled sacrifice. […] The anticoagulants were sodium citrate for coagulation tests and potassium EDTA for hematology tests. Samples for clinical chemistry were collected without anticoagulant.
# On Day 10 of the dosing phase, all surviving animals, having been fasted overnight, were anesthetized via isoflurane inhalation, exsanguinated, and necropsied. Terminal body weights were recorded for animals sacrificed at a scheduled interval. A macroscopic examination of the external features of the carcass; external body orifices; abdominal, thoracic, and cranial cavities; organs; and tissues was performed. Organ weights were recorded at the scheduled sacrifice. Paired organs were weighed together. Bone marrow smears (two slides) were prepared from the femur of each animal.
# Various models of calculators, computers, and computer programs were used to analyze data in this study. Values in some tables (e.g., means, standard deviations, or individual values) may differ slightly from those in other tables, from individually calculated data, or from statistical analysis data, because different models round off or truncate numbers differently. However, neither the integrity nor the interpretation of the data was affected by these differences.
# Data for each sex were analyzed separately; only data collected on or after the first day of dosing were analyzed statistically. Analysis of variance (ANOVA) and pairwise comparisons were used to analyze absolute body weight, Body weight change and continuous clinical pathology values. Levene's test was done to test for equality of variances between groups.
# TA97a = assay: Ames Bacterial Reverse Mutation Assay; details: for Background Lawn Code / Colony Counts Average / Colony Counts Replicate 1-3: TA97a
# Procedure: The Ames Bacterial Reverse Mutation (AB™) used five bacterial tester strains (TA97a, TA98, TA100, TA1535, WP2-uvrA).
# Tester strains were added to flasks containing nutrient broth and incubated at 37+2° C. overnight. The flasks were removed from the overnight incubation and the final concentration was determined (the OD was measured and determined whether growth was suitable for testing). Top agar was melted, and 2.0 mL was dispensed into heated culture tubes. The S9 mix (metabolic activation) was prepared and stored on ice. […] Each culture tube was vortexed and immediately poured onto the labeled minimal glucose agar plates. All plates were inverted and placed into a 37±1° C. incubator for 48-72 hours. The plates were counted via an automated colony counter or by hand and the background lawn was microscopically evaluated for any signs of toxicity. Genotypic control plates were prepared for each tester strain and incubated for 24-72 hours at 37±1° C.
# [2] = system: LNCaP, DU145 and PC-3 cells; assay: MTT cell growth/viability assay in PCa cells; type: cell-based, human
# Procedure: MTT assay for determining cancer cell growth viability: The MTT assay was described previously (13). […] Briefly, ˜2500 viable cells with or without genetic manipulation were plated in each well in 96-well plates. […] MTT, a colorimetric substrate, was then added to a final concentration of 0.4 mg/mL to each well. Cells in 96-well plates were further incubated in a 5% CO2 incubator at 37° C. for 4 h, and then the medium was aspirated. The MTT metabolic product formazan was solubilized by adding 200 μl of DMSO to each well. Absorbance in the relevant wells was measured at 570 nm using an Ultra Microplate Reader (Bio-Tek Instruments).
smiles,measurement,setting,value
CCC1(O)C(=O)OCc2c1cc1n(c2=O)Cc2cc3cc4c(cc3nc2-1)OCO4 (centres unmarked) [FL118],% BW Change (Day 4),[1]; Female,−14%
same,BW Change (Day 4),[1]; Female,−26* g
same,Mean body weight Day 1,[1]; Female,192 g
same,Mean body weight Day 4,[1]; Female,168* g
same,% BW Change (Day 4),[1]; Male,−12%
same,BW Change (Day 4),[1]; Male,−25* g
same,Mean body weight Day 1,[1]; Male,207 g
same,Mean body weight Day 4,[1]; Male,183* g
same,highest non-severely toxic dose (HNSTD),"[1]; oral, day 1 and day 8",1.65 mg/kg/dose
same,bacterial strain mutation,TA97a,does not induce
same,mean revertant colonies over negative control,TA97a; +/− S9,less than 2 fold
same,Background Lawn Code,TA97a; 0.010 μM +S9,1
same,Colony Counts Average,TA97a; 0.010 μM +S9,141
same,Colony Counts Replicate 1-3,TA97a; 0.010 μM +S9,123 and 140 and 161
same,Background Lawn Code,TA97a; 0.010 μM −S9,1
same,Colony Counts Average,TA97a; 0.010 μM −S9,101
same,Colony Counts Replicate 1-3,TA97a; 0.010 μM −S9,108 and 105 and 90
same,Background Lawn Code,TA97a; 0.10 μM +S9,1
same,Colony Counts Average,TA97a; 0.10 μM +S9,172
same,Colony Counts Replicate 1-3,TA97a; 0.10 μM +S9,189 and 150 and 178
same,Background Lawn Code,TA97a; 0.10 μM −S9,1
same,Colony Counts Average,TA97a; 0.10 μM −S9,95
same,Colony Counts Replicate 1-3,TA97a; 0.10 μM −S9,116 and 87 and 82
same,Background Lawn Code,TA97a; 1.0 μM +S9,1
same,Colony Counts Average,TA97a; 1.0 μM +S9,142
same,Colony Counts Replicate 1-3,TA97a; 1.0 μM +S9,140 and 146 and 139
same,Background Lawn Code,TA97a; 1.0 μM −S9,1
same,Colony Counts Average,TA97a; 1.0 μM −S9,119
same,Colony Counts Replicate 1-3,TA97a; 1.0 μM −S9,111 and 113 and 134
same,cell growth inhibition in DDX5 KO DU145 cells,[2]; 72h MTT,significantly increased resistance to FL118 treatment
same,"cell growth inhibition, DU145 vs LNCaP and PC-3",[2]; 72h MTT,higher sensitivity to FL118-induced cell growth inhibition
same,cell growth inhibition with USP2a overexpression,"[2]; LNCaP, DU145, 72 h",enhances FL 118-mediated inhibition of PCa cell growth
